Values of other authors in patent publication US10611908B2, “Micelles for mucoadhesive drug delivery” (McMaster University, priority 2015, dated 2020).

| pKa | Structure (SMILES) |
| --- | --- |
| ~8.8 | OB(O)c1ccccc1 [PBA, Phenylboronic acid] |
| ~4.6 | C=C(C)C(=O)O [MAA, methacrylic acid] |
